In article PMC7961786, “Magic Peptide: Unique Properties of the LRR11 Peptide in the Activation of Leukotriene Synthesis in Human Neutrophils” (International Journal of Molecular Sciences, 2021):
One block for each compound: values may come before it. Oligonucleotides are written 5' to 3', each unit as a sugar letter and its base; * is a phosphorothioate linkage, no mark a phosphodiester; rarer units and linkages stand in square brackets, end groups in braces. Plain capitals give the bases only. d = 2'-deoxy (DNA)

Columns and labels:
[1] = tested on: PMNLs, 5-LOX product formation; experiment: 5-LOX product formation in PMNLs stimulated by calcium ionophore A23187; type: cell-based, human; settings: 1 µM A23187 alone for 10 min, after 30 min at 37 °C without inhibitor; mean ± SEM, three independent experiments
Description: (§1) Human neutrophils were isolated from freshly taken citrate-anticoagulated peripheral blood from healthy individuals using standard methods. Leukocyte-rich plasma was prepared by sedimentation of erythrocytes with 3% dextran T-500 at room temperature. For purification of granulocytes, centrifugation through Ficoll-Paque (density 1.077 g/mL) was used, followed by hypotonic lysis of the remaining erythrocytes. PMNLs were washed twice in PBS, resuspended at 10^7 cells/mL (96–97% purity, 98–99% viability) in Dulbecco’s PBS containing 1 mg/mL glucose (no CaCl2) and stored at room temperature. All methods were performed in accordance with the relevant instructions and regulations of the Ministry of Health of the Russian Federation and local legislation.
(§2) To purify the water/methanol extracts, solid-phase extraction was used on Sep-Pak C18 cartridges (500 mg; Macherey-Nagel, Dueren, Germany), which were conditioned first with methanol, and then with water. Major 5-LOX metabolites were identified by comparing retention times with those of known compounds, as previously described.

[2] = tested on: human neutrophils (PMNLs), 5-LOX product synthesis; experiment: 5-LOX metabolite synthesis in human neutrophils stimulated with opsonized S. typhimurium (HPLC); type: cell-based
Description: Figure 1 Effects of LRR11 and ODNs on the formation of LTB4 (A,B) and the sum of 5-LOX metabolites (ω-OH-LTB4, LTB4 and its isomers, and 5-HETE) (C) in human PMNLs. PMNLs (2 × 10^7) were incubated for 15 min at 37 °C without (black bars) or with 1 μM LRR11 (A, LRR11_first); then ODNs and LRR11 or LPS were added; various ways of adding ODN and LRR11 peptide are indicated. In control samples, Hanks’ solution was added instead of ODNs. After 20 min, 0.5 × 10^9 S. typhimurium bacterial cells were added for a further 15 min. The 5-LOX products were determined using HPLC. Values indicate mean ± SEM of five independent experiments performed in duplicate. * p < 0.05, ** p < 0.01, *** p < 0.005, compared with the control. # p < 0.05, ## p < 0.01 for pairs of data compared as indicated by two-way ANOVA followed by Tukey’s multiple comparison test.
Figure 3 Synthesis of the 5-LOX metabolites in PMNLs exposed to opsonized S. typhimurium bacteria in the presence of the RAGE antagonist FPS-ZM1. PMNLs (2 × 10^7) were incubated for 15 min at 37 °C without additives or with 0.15 µM FPS-ZM1, for the next 20 min the mixture was incubated with 1 µM ODNs without (black bars) or with 1 µM LRR11 (gray bars) before adding 5 × 10^8 S. typhimurium for 15 min. In control samples, Hanks’ solution was added instead of ODNs. The 5-LOX products were determined using HPLC. Graphical data are presented for LTB4 (A) or the sum of LTB4 and its isomers, ω-OH-LTB4 and 5-HETE, designed as Σ5LOX products (B).
as §1, with “PMNLs were washed twice in PBS, resuspended at 10^7 cells/mL (96–97% purity, 98–99% viability) in Dulbecco’s PBS containing 1 mg/mL glucose (no CaCl2) and stored at room temperature.” left out
Bacteria (S. typhimurium IE 147 strain) obtained from the Collection of Gamaleya National Research Center of Epidemiology and Microbiology (Moscow, Russia) were grown in Luria–Bertani broth to a concentration of 1 × 10^9 colony-forming units (CFU)/mL. The bacteria were collected by centrifugation at 2000 g and opsonized immediately before the experiment for 30 min in 20% (v/v) fresh serum from the same donor whose blood was used to isolate neutrophils. Repeated centrifugation in Dulbecco’s solution was used to wash the bacteria.
The cell suspension (2 × 10^7 PMNLs in HBSS/HEPES, reaction volume of 6 mL) was cultured for 15 min in an incubator at 37 °C, 5% CO2. Then 1.0 µM ODN with or without 1.0 µM LRR11, or 2 µg/mL LPS, was added as indicated. After 20 min, the cells were stimulated with S. typhimurium (the ratio of bacteria to PMNLs was approximately 20:1) for the next 15 min [3]. The synthesis of 5-LOX metabolites was stopped by adding an equal volume of methanol at −20 °C with prostaglandin B2 as an internal standard. Samples were stored at −20 °C. The denatured cell suspension was centrifuged, and supernatants designated as water/methanol extracts.
as §2
Table S1. Effect of Chloroquine on 5-LOX product formation in PMNLs after ODN priming followed by the addition
of opsonized S. typhimurium bacteria.

NeutrAvidin = experiment: TSM acoustic biosensor, unspecific binding to NeutrAvidin in the absence of ODNs
Source text: (§3) To characterize the interaction of the studied synthetic ODNs with the LRR11 peptide, we applied the thickness shear mode (TSM) acoustic biosensor method, which is based on the investigation of ultrasonic waves in piezoelectric materials such as AT-cut quartz. This approach involved immobilizing a 5′-biotinylated ODN on the surface of TSM transducer covered by NeutrAvidin and then adding the LRR11 peptide. An unrelated peptide (URP) with a random primary structure ([…]) was used as a negative control. The measurement procedure was divided into several steps, in which each immobilization stage was followed by washing with an appropriate buffer solution; when peptide solutions at different concentrations (from 1 to 100 nM) were added to the surface-modified TSM transducer, a wash with Hanks buffer was used before increasing the peptide concentration.
(§4) Eight MHz AT-cut piezoelectric quartz crystal transducer was obtained from CH Instruments, Austin, TX, USA. The transducer was covered on both sides with thin layers of gold that served as electrodes (working area 0.2 cm^2). Prior ODNs immobilization, the crystal was carefully cleaned with basic Piranha solution (29% NH3, 30% H2O and H2O2 with volumetric 1:5:1 ratio, respectively) for 25 min. After the thorough cleaning, the crystal was positioned between two silicon O-rings in a flow-through cell. […]

[3] = tested on: 5′-biotinylated G-rich ODN; experiment: TSM acoustic biosensor, peptide binding to immobilized G-rich ODN; settings: URP, immobilized G-rich ODN
Source text: as §3, §4

5′-biotinylated C-CpG = experiment: TSM acoustic biosensor, peptide binding to immobilized C-CpG; settings: up to 100 nM URP, immobilized C-CpG; Figure 4A
Source text: as §3
(§5) Based on Langmuir isotherm Equation (1), (1) Δfcc=Δfsmaxc/KD+c where Δfs(c) is the frequency change at a certain peptide concentration under equilibrium conditions, (Δfs)max is the maximum frequency change, c is the peptide concentration, and KD is the equilibrium constant of dissociation, we estimated the (Δfs)max and KD values for binding of the LRR11 peptide to C-CpG and B-CpG (Table 3).
Using Sauerbrey’s Equation (2), (2) Δf=−2f02Δm/Aμqρq where f0 is the fundamental resonance frequency (in our case 8 MHz), Δm is the change in mass (in grams) of the adsorbed layer on the crystal surface, A is the effective crystal area (in our case 0.2 cm^2), μq = 2.947 × 10^11 g × cm^−1s^−2 is the shear modulus of elasticity, and ρq = 2.648 g × cm^−3 is the crystal density, surface concentrations of NeutrAvidin, ODN and LRR11 peptide were estimated based on changes of resonance frequency (Figure 4). According to Equation (2), the surface density of molecules, σ (in molecules/cm^2), can be calculated as σ = ΔmNA/(A × Mw), where NA is Avogadro’s number (=6.023 × 10^23 mol^−1), and Mw represents the molecular weight of the corresponding compound (NeutrAvidin: 65 kDa, 5′-biotinylated C-CpG: 7115.4 Da, and LRR11: 3421 Da). Based on this approach, we obtained the following surface concentration values: 1.94 × 10^13 cm^−2 for NeutrAvidin, 3.37 × 10^13 cm^−2 for C-CpG and 2.4 × 10^13 cm^−2 for LRR11. The NeutrAvidin has four binding sites, two of which are available for biotinylated ODN binding. This is due to the fact that the other two sites are inaccessible due to NeutrAvidin chemisorption on the TSM surface. Thus, the number of available binding sites for the ODN is 3.88 × 10^13 cm^−2. […] Therefore, the surface of the TSM transducer is practically completely saturated by C-CpG. Estimation of the surface concentration of LRR11 evidences that at 50 nM concentration of this peptide, it occupies almost 70.6% of the ODN molecules. […]

5′-biotinylated B-CpG = experiment: TSM acoustic biosensor, peptide binding to immobilized B-CpG; settings: URP, immobilized B-CpG
Source text: as §3, §5
Eight MHz AT-cut piezoelectric quartz crystal transducer was obtained from CH Instruments, Austin, TX, USA. The transducer was covered on both sides with thin layers of gold that served as electrodes (working area 0.2 cm^2). Prior ODNs immobilization, the crystal was carefully cleaned with basic Piranha solution (29% NH3, 30% H2O and H2O2 with volumetric 1:5:1 ratio, respectively) for 25 min. After the thorough cleaning, the crystal was positioned between two silicon O-rings in a flow-through cell. The analyte was injected into the cell using a Genie Plus syringe pump (Kent Scientific, Torrington, CT, USA) at a flow rate of 50 μL/min. Each solution was applied until the resonance frequency stabilized. The surface of the transducer was first washed with deionized water, and then 125 μg/mL NeutrAvidin (WWR International GmbH, Vienna, Austria) solution in water was applied. Approximately 15 min were required to stabilize the signal at a constant NeutrAvidin flow rate. This was followed by washing with water to rinse out all non-chemisorbed NeutrAvidin molecules. Immobilization of ODN on the gold surface of the crystals is accomplished using avidin–biotin interactions. A 1 μM 5′-biotinylated ODN solution was injected over the neutravidin-modified surface and subsequently the crystal was washed again with water. The system was then equilibrated using Hanks buffer solution. This buffer was suitable for studying LRR11–ODN binding. Then LRR11 was used at concentrations of 1, 5, 10, 50 and 100 nM […] in Hanks buffer. After each addition of LRR11, the sensor surface was washed with Hanks buffer and LRR11 with the higher concentration was added. All binding experiments were carried out at room temperature. Buffer and sample solutions were introduced in a flow-through format. A network analyzer 8712ES (Agilent Technologies, Santa Clara, CA, USA) was used to measure the impedance properties of the sensor and determine fS and Rm.

Compound: CNc1ccc2oc(C[C@H]3O[C@@]4(CC[C@H]3C)O[C@H]([C@H](C)C(=O)c3ccc[nH]3)[C@H](C)C[C@H]4C)nc2c1C(=O)O [A23187]
- Σ 5-LOX metabolites [1]: 416 ± 37 ng/10^7 PMNLs

Compound: 5′- ggGGACGACGTCGTGgggggg-3′ (DNA dG*dG*dGdGdAdCdGdAdCdGdTdCdGdTdGdG*dG*dG*dG*dG*dG) [A-CpG]
- effect on 5-LOX activity / leukotriene synthesis ([2]; ODN alone, 1 µM, 20 min, then opsonized S. typhimurium 15 min, Figure 1, five independent experiments in duplicate): did not significantly affect 5-LOX activity
- Σ 5-LOX metabolites ([2]; Table S1, 2×10^7 PMNLs, 15 min at 37 °C without or with 5 µM Chloroquine, then ODN, after 20 min 0.5×10^9 opsonized S. typhimurium for 15 min, mean ± SEM, three independent experiments): 18.4 ± 2.1 ng/107 PMNLs

- unspecific binding to NeutrAvidin (NeutrAvidin): no unspecific biding
Compound: LQTLDLRDNALTTIHFIPSIPD [URP, unrelated peptide with a random primary structure, negative control, reference compound]
- interaction of URP with ODN [3]: absence of interactions between the URP and ODNs
- frequency reduction by URP (5′-biotinylated C-CpG): no frequency reduction was occurred even after the addition of 100 nM URP
- interaction of URP with ODN (5′-biotinylated B-CpG): absence of interactions between the URP and ODNs
